In US10596169B2, “Cancer treatment with combination of plinabulin and taxane” (BeyondSpring Inc., priority 2013, dated 2020):

What was measured:
[1] = Example 3: clinical study, safety (docetaxel dose reduction, neutropenia rate, G-CSF use), Arm DN vs Arm D; type: in vivo, human (NSCLC patients)
Description: (§1) The investor applied the optimum plinabulin and docetaxel combination treatment schedule derived from MV522 animal studies in NSCLC patients. Patients received therapy on Day 1 and Day 8 in 3-week cycles. Therapy on Day 1 consisted of 75 mg/m^2 docetaxel administered via intravenous infusion (IV) over 1 hour, followed 2 hours later (from the time the docetaxel infusion begins) by 30 mg/m^2 plinabulin administered via intravenous infusion (IV) over 30 minutes. Therapy on Day 8 consisted of 20 mg/m^2 or 30 mg/m^2 plinabulin administered via intravenous infusion (IV) over 30 minutes.
(§2) This was an open-label study in patients with advanced NSCLC that had progressed after treatment with at least 1 chemotherapy regimen. Patients were randomized to receive either docetaxel plus plinabulin (DN) or docetaxel alone (75 mg/m^2) (D). 2 dosing cohorts were investigated: • 1) 30 mg/m^2 dosing cohort: Approximately 110 patients were to be randomized (1:1) to receive either docetaxel plus plinabulin at 30 mg/m^2 (DN 30 mg/m^2 arm) or docetaxel alone (D arm); • 2) 20 mg/m^2 dosing cohort: Approximately 57 patients were to be randomized (2:1) to receive either docetaxel plus plinabulin at 20 mg/m^2 (DN 20 mg/m^2 arm) or docetaxel (D arm) alone.
(§3) Patients received therapy on Day 1 and Day 8 in 3-week cycles.
(§4) Therapy on Day 1 consisted of 75 mg/m^2 docetaxel administered via intravenous infusion (IV) over 1 hour, followed 2 hours later (from the time the docetaxel infusion began) by placebo (Arm D) or 30 mg/m^2 or 20 mg/m^2 plinabulin (Arm DN) DN administered via intravenous infusion (IV) over 30 minutes. Oral dexamethasone (16 mg) was given the day prior to, the day of and the day following docetaxel infusion (Day 1). Therapy on Day 8 consisted of placebo (Arm D) or 30 mg/m^2 or 20 mg/m^2 plinabulin (Arm DN) administered via intravenous infusion (IV) over 30 minutes.
In patients experiencing drug related Grade >2 treatment emergent adverse events (except alopecia, anorexia, and fatigue) according to the CTCAE (v3.0) treatment may be delayed until the adverse event has recovered to <Grade 1.
The initial dose of plinabulin was 30 mg/m^2 or 20 mg/m^2. Dose adjustments depended on observed adverse events. Volume of administration varied based on assigned dose and patient body surface area. The clinical formulation were supplied as a concentrated solution in 40% Solutol® HS-15/60% propylene glycol in amber vials containing 80 mg of drug in 20 mL (4 mg/mL) and were stored at room temperature. Each vial was designated for single use. The correct volume of drug (at a concentration of 4 mg/mL in the vial) was diluted in dextrose 5% in water (D5W) at a dilution of 1:20 and administered IV peripherally or centrally. Infusion time may be increased as clinically indicated at the direction of the Sponsor. Plinabulin and placebo must be protected from light at all times including storage, dilution and administration. Plinabulin and placebo should be administered within 6 hours of dilution.
The initial dose of docetaxel was 75 mg/m^2. Dose adjustments depended on observed adverse events.
Comparisons were made of efficacy endpoints between Arm D and Arm DN. The primary efficacy endpoint is overall survival. Secondary endpoints include response rate, duration of response, quality of life, neutropenia rate and G-CSF usage. […]
All patients were evaluated for safety analysis if they received at least one dose of study drug. […]

[2] = test system: stage IIIb/IV non-small cell lung cancer; experiment: Example 3: clinical study, efficacy (overall survival, response rate), Arm DN vs Arm D; type: in vivo, human (NSCLC patients); conditions: for OS / Response Rate: Arm DN (30 mg/m^2) vs Arm D
Description: as §1
To compare the overall survival of patients with NSCLC treated with docetaxel to patients treated with docetaxel+plinabulin.
Secondary: • 1. To compare the response rate, duration of response, 6-month survival, and progression free survival in patients with NSCLC treated with docetaxel to patients with docetaxel+plinabulin; • 2. To compare the safety and adverse events profile of docetaxel to docetaxel+plinabulin.
as §2, §3, §4
Patients with stage IIIb/IV non-small cell lung cancer that has progressed after treatment with at least one chemotherapy regimen.
Assessment of response to treatment occurred during the rest period of the second cycle (and approximately every 2 cycles thereafter).
Comparisons were made of efficacy endpoints between Arm D and Arm DN. The primary efficacy endpoint is overall survival. Secondary endpoints include response rate, duration of response, quality of life, neutropenia rate and G-CSF usage.
The distributions of overall survival and any other time-to-event endpoints were summarized using the Kaplan-Meier method. The log-rank test was used to compare the efficacy endpoints between treatment groups. All statistical tests were carried out using one-sided tests at the 5% level of significance. The primary objective of this trial is to assess the effect of the addition of plinabulin on overall survival.

NSCLC = conditions: wide type NSCLC patients (stage IIIb/IV, second line), docetaxel 75 mg/m^2; cited from earlier work

CC(=O)O[C@@]12CO[C@@H]1C[C@H](O)[C@@]1(C)C(=O)[C@H](O)C3=C(C)[C@@H](OC(=O)[C@H](O)[C@@H](NC(=O)OC(C)(C)C)c4ccccc4)C[C@@](O)([C@@H](OC(=O)c4ccccc4)[C@H]21)C3(C)C [Docetaxel, docetaxel]
Patients requiring docetaxel dose reductions ([1]; 20 mg/m^2 plinabulin cohort and companion D arm): 22.2%
Patients with docetaxel dose decrease from initial 75 mg/m^2 ([1]; 30 mg/m^2 plinabulin cohort and matched docetaxel alone arm): 18.2%
Incidence of neutropenia ([1]; DN 20 mg/m^2 arm vs companion D arm): 22.2%
Incidence of neutropenia ([1]; DN 30 mg/m^2 arm vs companion D arm): 36.4%
Incidence of ≥Grade 3 neutropenia ([1]; pooled D arm (n=73)): 27.4%
Overall survival (OS) ([2]; 30 mg/m^2 group, all patients, docetaxel 75 mg/m^2): 7.5 M
OS ([2]; All Patients): 7.5 month
Response Rate ([2]; All Patients): 14.5%
OS ([2]; largest primary tumor >3 cm): 7.5 month
Response Rate ([2]; largest primary tumor >3 cm): 13.9%
OS ([2]; largest primary tumor >5 cm): 6.7 month
Response Rate ([2]; largest primary tumor >5 cm): 15%
OS ([2]; largest primary tumor >7 cm): 5.03 month
Response Rate ([2]; largest primary tumor >7 cm): 20%
OS ([2]; largest primary tumor ≤3 cm): 6.5 month
Response Rate ([2]; largest primary tumor ≤3 cm): 15.8%
Overall survival (OS) ([2]; subgroup all tumor <3 cm, plinabulin 30 mg/m^2): 6.47 M
Overall survival (OS) ([2]; subgroup at least one tumor with diameter greater than 3 cm, plinabulin 30 mg/m^2): 7.8 M
OS (NSCLC): 8.2 months
